From patent EP3050567B1, “COMPOUND FOR ACTIVATING AMPK AND USES THEREOF” (Energenesis Biomedical Co., Ltd., priority 2013, dated 2015)

Legend:
muscle cell C2C12 = test: Glucose uptake in vitro (fluorescent glucose analog 2-NBDG); type: cell-based, Mouse; conditions: C2C12 cells, 30 min, mean±SEM of three experiments
Protocol: Effects of adenine on glucose uptake were analyzed by measuring the uptake of fluorescent glucose analog (2-NBDG, Molecular Probes) in muscle cell C2C12. C2C12 cells were treated with indicated concentrations of adenine for 30 min at 37°C, and then incubated with 500 µM of fluorescent glucose analog. After 5 min incubation at room temperature, cells were washed three times with Kreb-Hepes buffered solution and fixed in 70% alcohol. The fluorescence of glucose analog in cells was measured using a Fluorescence Microplate Reader System.

AMPK [1] = test: AMPK activation assay (phospho-AMPK Thr172 western blot) in Neuro2A cells; type: cell-based, mouse; conditions: 30 min
Protocol: (§1) Effects of adenine on AMPK activation were evaluated based on the phosphorylation of AMPK protein upon adenine treatment. Mouse muscle cell C2C12, mouse fibroblast 3T3, human liver carcinoma cell Hep G2, human breast adenocarcinoma cell line MCF7 and human colon adenocarcinoma grade II cell line HT29, human umbilical vein endothelial cell HUVEC, Human acute monocytic leukemiacell THP1, human macrophage cell U937, murine microglia cell BV-2, and mouse neuroblastoma cell Neuro2A and dermal papilla cell were cultured in high-glucose Dulbecco's modified Eagle's medium (DMEM) containing 10% fetal bovine serum (FBS), 4 mM L-glutamine, 2 mM sodium pyruvate and 1% penicillin/streptomycin (Invitrogen GibcoBRL, Carlsbad, Calif., USA) at 37°C, under 5% CO2. Cells were plated at 3 × 10^5 per well in 6-well plates. Twenty-four hours after plating, adenine was added to the culture media as indicated. After 30 min cells were lysed and subject to western blot analysis. Equal amount of protein from each sample was separated by SDS-PAGE and then electroblotted on to PVDF membranes. Membranes were blocked with 3% BSA in PBS for 60 min and incubated with an anti-phospho-AMPK (Thr172) antibody (1:2,000, Cell signaling) or an anti-AMPK antibody (1:2,000, Cell signaling) at 4°C for 16 h followed by the corresponding secondary antibody for 1 h at room temperature (RT). Immunoreactive bands were detected by enhanced chemiluminescence and recorded using Kodak film. The detected signals were scanned and then quantified using TotalLab Quant software (TotalLab).

Amyloid β peptide = Amyloid β peptide assay in Neuro2A cells transfected with human APP695 (western blot); type: cell-based, mouse; conditions: 24 h
Protocol: Effects of adenine on Amyloid β peptide were analyzed in mouse neuroblastoma cell Neuro2A. Neuro2A cells were cultured in high-glucose Dulbecco's modified Eagle's medium (DMEM) containing 10% fetal bovine serum (FBS), 4 mM L-glutamine, 2 mM sodium pyruvate and 1% penicillin/streptomycin (Invitrogen GibcoBRL, Carlsbad, Calif., USA) at 37°C under 5% CO2. Cells were plated at 3 × 10^5 per well (6-well plate). 24 h after plating, cells were transfected with human APP695 and treated with indicated concentration of adenine for 24 h followed by cell lysis and western blot analysis. Equal amounts of protein were separated by SDS-PAGE and then electroblotted on to PVDF membranes. Membranes were blocked with 3% BSA in PBS for 60 min and incubated with an anti-Aβ antibody (1:1,000, abcam), an anti-LC3 antibody (1:1,000, Cell signaling), and an anti-actin antibody (1:5,000, Cell signaling) at 4°C for 16 h followed by the corresponding secondary antibody for 1 h at room temperature (RT). Immunoreactive bands were detected by enhanced chemiluminescence and recorded using Kodakfilm. The detected signals were scanned and then quantified by using TotalLab Quant software (TotalLab).

high-fat diet-fed mice = test: Anti-diabetic effects in high-fat diet-fed mice; type: in vivo, C57BL/6J mice; conditions: adenine 0.1 to 50 mg/kg IP twice a day for 6 days, compared to control group
Protocol: To further evaluate the effects of adenine on the modulation of plasma glucose level, the high-fat diet-fed mice were served as a type 2 diabetes animal model. C57BL/6J mice were maintained at 22°C under a 12-h light/dark cycle and fed either a high fat diet (60% kcal% fat) or a normal diet ad libitum. Intraperitoneal injections of adenine (0.1 to 50 mg/kg) or vehicle were given to the high-fat diet-fed mice from the age of 24 weeks and glucose readings were measure at 1 and 3 hr. IP administration of adenine or vehicle only to the high-fat diet-fed mice continued twice a day for 6 days. On day 6, plasma was collected 1 hr after the last dosing for analyzing, evaluating, measuring plasma glucose and triglycerides.

Hep G2 = test: Cancer cell growth inhibition assay, Hep G2; type: cell-based; conditions: Homo sapiens; HepG2 cell proliferation, 72 h, cell counting
Protocol: Human liver hepatocellular carcinoma cell line Hep G2, human breast adenocarcinoma cell line MCF7 and human colon adenocarcinoma grade II cell line HT29 were used to evaluate the effects of adenine on cell proliferation. Those cell lines were obtained from ATCC and were cultured in high-glucose Dulbecco's modified Eagle's medium (DMEM) containing 10% fetal bovine serum (FBS), 4 mM L-glutamine, 2 mM sodium pyruvate and 1% penicillin/streptomycin (Invitrogen GibcoBRL, Carlsbad, Calif., USA) at 37°C under 5% CO2. Cells were plated at 1 × 10^5 per well (6-well plate). Twenty-four hours after plating, cells were treated with indicated concentration of adenine for 72 h and then followed by cell counting. Cells were detached using trypsin-EDTA solution and stained with trypan blue. The living cells were counted using hemocytometer.

AMPK [2] = test: AMPK activation assay (phospho-AMPK Thr172 western blot) in C2C12 cells; type: cell-based, Mouse; conditions: 30 min
Protocol: as §1

**Q.** For `Nc1ncnc2nc[nH]c12` [Adenine, adenine], which “Glucose uptake (% to control)” value (muscle cell C2C12; adenine 1 microM) is on record?
**A.** The value was 117±8.1 % to control.

**Q.** And the “Glucose uptake (% to control)” value (muscle cell C2C12; adenine 10 microM)?
**A.** The value was 261±13.4 % to control.

**Q.** And the “Glucose uptake (% to control)” value (muscle cell C2C12; adenine 100 microM)?
**A.** Its value is 315±11.9 % to control.

**Q.** And the “Glucose uptake (% to control)” value (muscle cell C2C12; adenine 600 microM)?
**A.** The value was 338±16.5 % to control.

**Q.** What about the “AMPK activation (fold to control)” value (AMPK [1]; adenine 1 microM) of the same compound?
**A.** Its value is 1.2 fold to control.

**Q.** And the “AMPK activation (fold to control)” value (AMPK [1]; adenine 10 microM)?
**A.** Its value is 2.1 fold to control.

**Q.** And the “AMPK activation (fold to control)” value (AMPK [1]; adenine 100 microM)?
**A.** The value was 3.4 fold to control.

**Q.** What about the “sAβ level (% of control)” value (Amyloid β peptide; Neuro2A cells transfected with human APP695, adenine 10 microM) of the same compound?
**A.** Its value is 89 ± 7.5 % of control.

**Q.** And the “sAβ level (% of control)” value (Amyloid β peptide; Neuro2A cells transfected with human APP695, adenine 20 microM)?
**A.** The value was 63 ± 2.2 % of control.

**Q.** And the “sAβ level (% of control)” value (Amyloid β peptide; Neuro2A cells transfected with human APP695, adenine 30 microM)?
**A.** Its value is 48.1 ± 1.7 % of control.

**Q.** What about the “sAβ level (% of control)” value (Amyloid β peptide; Neuro2A cells transfected with human APP695, adenine 40 microM) of the same compound?
**A.** Its value is 31.7 ± 5.1 % of control.

**Q.** And the “sAβ level (% of control)” value (Amyloid β peptide; Neuro2A cells transfected with human APP695, adenine 50 microM)?
**A.** Its value is 29.4 ± 3.6 % of control.

**Q.** And the lower body weight (high-fat diet-fed mice)?
**A.** The lower body weight was “more than 15%”.

**Q.** What about the lower plasma glucose (high-fat diet-fed mice) of the same compound?
**A.** Its lower plasma glucose is over 30%.

**Q.** And the lower plasma triacylglycerides (high-fat diet-fed mice)?
**A.** Its lower plasma triacylglycerides is “more than 35%”.

**Q.** And the lower plasma glucose (high-fat diet-fed mice; listed as adenine)?
**A.** Its lower plasma glucose is “more than 30%”.

**Q.** And the IC50 (Hep G2)?
**A.** The IC50 was 544 µM.

**Q.** And the “AMPK activation (fold to control)” value (AMPK [2]; adenine 1 microM)?
**A.** The value was 1.2 fold to control.

**Q.** And the “AMPK activation (fold to control)” value (AMPK [2]; adenine 10 microM)?
**A.** The value was 1.7 fold to control.

**Q.** What about the “AMPK activation (fold to control)” value (AMPK [2]; adenine 100 microM) of the same compound?
**A.** Its value is 3.2 fold to control.

**Q.** And the “AMPK activation (fold to control)” value (AMPK [2]; adenine 200 microM)?
**A.** Its value is 3.9 fold to control.

**Q.** And the “AMPK activation (fold to control)” value (AMPK [2]; adenine 600 microM)?
**A.** The value was 4.1 fold to control.
